{"source": "ChEMBL document CHEMBL6103539", "about": "“A critical analysis of design, binding pattern and SAR of benzo-fused heteronuclear compounds as VEGFR-2 inhibitors” (Bioorg Med Chem, 2024)", "key": {"MCF7 [1]": {"system": "MCF7", "experiment": "Antiproliferative activity against human MCF7 cells assessed as cell growth inhibition measured for 24 hrs by MTT assay", "type": "functional, cell-based", "conditions": "MCF7, 24 h"}, "HepG2 [2]": {"system": "HepG2", "experiment": "Antiproliferative activity against human HepG2 cells assessed as cell growth inhibition measured for 24 hrs by MTT assay", "type": "functional, cell-based", "conditions": "HepG2, 24 h"}, "MCF7 [3]": {"system": "MCF7", "experiment": "cells", "conditions": "Homo sapiens, MCF7, 72 h", "description": "Cytotoxicity against human MCF7 cells assessed as reduction in cell viability incubated for 72 hrs by MTT assay"}, "HCT-116 [4]": {"system": "HCT-116", "experiment": "cells", "conditions": "Homo sapiens, HCT-116, 72 h", "description": "Cytotoxicity against human HCT-116 cells assessed as reduction in cell viability incubated for 72 hrs by MTT assay"}, "HepG2 [5]": {"system": "HepG2", "experiment": "cells", "conditions": "Homo sapiens, HepG2, 72 h", "description": "Cytotoxicity against human HepG2 cells assessed as reduction in cell viability incubated for 72 hrs by MTT assay"}, "[6]": {"biological_target": "T1, Vascular endothelial growth factor receptor 2 (Homo sapiens, UniProt P35968)", "T1 sequence (P35968 whole entry)": "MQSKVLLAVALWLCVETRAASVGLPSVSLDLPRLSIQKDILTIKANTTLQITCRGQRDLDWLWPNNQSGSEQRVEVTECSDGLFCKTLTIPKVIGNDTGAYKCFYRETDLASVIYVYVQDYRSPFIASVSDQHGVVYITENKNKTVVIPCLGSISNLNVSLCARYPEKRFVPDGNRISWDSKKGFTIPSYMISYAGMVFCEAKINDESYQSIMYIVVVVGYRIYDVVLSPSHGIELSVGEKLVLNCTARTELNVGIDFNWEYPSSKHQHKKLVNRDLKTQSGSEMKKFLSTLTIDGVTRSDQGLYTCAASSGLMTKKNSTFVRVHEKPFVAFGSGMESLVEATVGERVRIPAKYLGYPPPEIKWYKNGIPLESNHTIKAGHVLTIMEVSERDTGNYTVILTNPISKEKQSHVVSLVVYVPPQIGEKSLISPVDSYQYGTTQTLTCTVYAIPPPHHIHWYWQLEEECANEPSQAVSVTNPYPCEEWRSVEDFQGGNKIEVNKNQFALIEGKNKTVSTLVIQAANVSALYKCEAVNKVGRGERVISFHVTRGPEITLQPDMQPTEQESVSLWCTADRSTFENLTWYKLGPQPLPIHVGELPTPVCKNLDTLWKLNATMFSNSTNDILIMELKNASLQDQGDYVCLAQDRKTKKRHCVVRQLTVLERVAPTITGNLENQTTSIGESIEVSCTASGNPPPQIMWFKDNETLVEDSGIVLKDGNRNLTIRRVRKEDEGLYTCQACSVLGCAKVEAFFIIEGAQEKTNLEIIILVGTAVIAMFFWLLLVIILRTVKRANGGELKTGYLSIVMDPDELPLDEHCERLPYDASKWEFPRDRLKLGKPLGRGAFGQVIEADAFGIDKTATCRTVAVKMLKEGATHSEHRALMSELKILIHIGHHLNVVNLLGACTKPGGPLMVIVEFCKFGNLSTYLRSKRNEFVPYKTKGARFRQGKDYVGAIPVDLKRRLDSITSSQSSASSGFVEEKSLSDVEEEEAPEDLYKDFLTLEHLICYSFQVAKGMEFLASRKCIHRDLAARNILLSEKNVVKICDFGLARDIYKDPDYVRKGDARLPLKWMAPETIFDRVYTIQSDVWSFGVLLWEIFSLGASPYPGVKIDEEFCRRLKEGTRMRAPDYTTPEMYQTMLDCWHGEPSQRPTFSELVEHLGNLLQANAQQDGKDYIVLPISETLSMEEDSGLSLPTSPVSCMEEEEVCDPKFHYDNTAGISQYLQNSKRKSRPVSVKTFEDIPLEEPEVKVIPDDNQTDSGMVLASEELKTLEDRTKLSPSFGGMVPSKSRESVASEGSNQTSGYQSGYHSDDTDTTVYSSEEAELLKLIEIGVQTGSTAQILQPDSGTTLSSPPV", "experiment": "Inhibition of VEGFR2 (unknown origin) using poly (Glu,Tyr) 4:1 as substrate measured after 1 hr in presence of ATP by ELISA method"}, "[7]": {"biological_target": "T1, Vascular endothelial growth factor receptor 2", "experiment": "Inhibition of GST-tagged human recombinant VEGFR2 at 10 uM using Poly(4:1 Glu, Tyr) as substrate by Kinase-Glo Max reagent based luminescence analysis relative to control"}, "NCI-H460": {"system": "NCI-H460", "experiment": "Cytotoxicity against human NCI-H460 cells assessed as reduction in cell growth incubated for 24 hrs by MTT assay", "type": "functional, cell-based", "conditions": "NCI-H460, 24 h"}, "A549 [8]": {"system": "A549", "experiment": "Cytotoxicity against human A549 cells assessed as reduction in cell growth incubated for 24 hrs by MTT assay", "type": "functional, cell-based", "conditions": "A549, 24 h"}, "MCF7 [9]": {"system": "MCF7", "experiment": "Cytotoxicity against human MCF7 cells assessed as reduction in cell viability incubated for 48 hrs by MTT assay", "type": "functional, cell-based", "conditions": "MCF7, 48 h"}, "HepG2 [10]": {"system": "HepG2", "experiment": "Anticancer activity against human HepG2 cells assessed as reduction in cell viability measured after 72 hrs by MTT assay", "type": "functional, cell-based", "conditions": "HepG2, 72 h"}, "HCT-116 [11]": {"system": "HCT-116", "experiment": "Cytotoxicity against human HCT-116 cells assessed as reduction in cell growth by MTT assay", "type": "functional, cell-based"}, "MCF7 [12]": {"system": "MCF7", "experiment": "Cytotoxicity against human MCF7 cells assessed as reduction in cell growth by MTT assay", "type": "functional, cell-based"}, "[13]": {"biological_target": "T1, Vascular endothelial growth factor receptor 2", "experiment": "Inhibition of VEGFR-2 (unknown origin)"}, "HepG2 [14]": {"system": "HepG2", "experiment": "Cytotoxicity against human HepG2 cells assessed as reduction in cell growth by MTT assay", "type": "functional, cell-based"}, "[15]": {"biological_target": "T1, Vascular endothelial growth factor receptor 2", "experiment": "Inhibition of VEGFR-2 in human MCF7 cells by ELISA method", "type": "cell-based"}, "[16]": {"biological_target": "T1, Vascular endothelial growth factor receptor 2", "experiment": "Inhibition of human VEGFR-2 by ELISA method"}, "HCT-116 [17]": {"system": "HCT-116", "experiment": "Antiproliferative activity against human HCT-116 cells assessed as reduction in cell viability incubated for 48 hrs by MTT assay", "type": "functional, cell-based", "conditions": "HCT-116, 48 h"}, "A549 [18]": {"system": "A549", "experiment": "Antiproliferative activity against human A549 cells assessed as reduction in cell viability incubated for 48 hrs by MTT assay", "type": "functional, cell-based", "conditions": "A549, 48 h"}, "UO-31": {"system": "UO-31", "experiment": "Antiproliferative activity against human UO-31 cells assessed as reduction in cell viability incubated for 48 hrs by MTT assay", "type": "functional, cell-based", "conditions": "UO-31, 48 h"}, "HepG2 [19]": {"system": "HepG2", "experiment": "Anticancer activity against human HepG2 cells", "type": "functional, cell-based"}, "MCF7 [20]": {"system": "MCF7", "experiment": "Anticancer activity against human MCF7 cells", "type": "functional, cell-based"}, "HCT-116 [21]": {"system": "HCT-116", "experiment": "Anticancer activity against human HCT-116 cells", "type": "functional, cell-based"}, "MCF7 [22]": {"system": "MCF7", "experiment": "Cytotoxicity against human MCF7 cells assessed as reduction in cell viability incubated for 48 hrs by SRB assay", "type": "functional, cell-based", "conditions": "MCF7, 48 h"}, "[23]": {"biological_target": "T1, Vascular endothelial growth factor receptor 2", "experiment": "Inhibition of VEGFR2 in human MCF7 cells by horseradish peroxidase-coupled TMB substrate based ELISA", "type": "cell-based"}}, "data": [{"smiles": "Cc1ccc2oc(SCC(=O)Nc3ccc(C(=O)Nc4ccc(O)cc4)cc3)nc2c1", "values": [{"measurement": "IC50", "setting": "MCF7 [1]", "result": 18.2, "unit": "µM"}, {"measurement": "IC50", "setting": "HepG2 [2]", "result": 7.01, "unit": "µM"}]}, {"smiles": "O=C(CCSc1nc2ccccc2o1)Nc1nnc(-c2ccccc2)s1", "values": [{"measurement": "IC50", "setting": "MCF7 [3]", "result": 7.89, "unit": "µM"}, {"measurement": "IC50", "setting": "HCT-116 [4]", "result": 6.99, "unit": "µM"}, {"measurement": "IC50", "setting": "HepG2 [5]", "result": 9.97, "unit": "µM"}]}, {"smiles": "O=C(CCSc1nc2ccccc2o1)Nc1ccc(S(=O)(=O)NC(=O)NC2CCCCC2)cc1", "values": [{"measurement": "IC50", "setting": "MCF7 [3]", "result": 8.93, "unit": "µM"}, {"measurement": "IC50", "setting": "HCT-116 [4]", "result": 7.14, "unit": "µM"}, {"measurement": "IC50", "setting": "[6]", "result": 0.08, "unit": "µM"}, {"measurement": "IC50", "setting": "HepG2 [5]", "result": 5.93, "unit": "µM"}]}, {"smiles": "Cc1ccc2oc(SCCC(=O)Nc3ccc(S(=O)(=O)NC(=O)NC4CCCCC4)cc3)nc2c1", "values": [{"measurement": "IC50", "setting": "MCF7 [3]", "result": 8.67, "unit": "µM"}, {"measurement": "IC50", "setting": "HCT-116 [4]", "result": 6.93, "unit": "µM"}, {"measurement": "IC50", "setting": "HepG2 [5]", "result": 4.13, "unit": "µM"}]}, {"smiles": "COc1ccc(/C=N/N=C(/c2ccccc2)c2ccc3nc(-c4ccc(Cl)cc4)[nH]c3c2)cc1", "values": [{"measurement": "inhibition", "setting": "[7]", "result": 86.2, "unit": "%"}, {"measurement": "IC50", "setting": "NCI-H460", "result": 1.71, "unit": "µM"}, {"measurement": "IC50", "setting": "A549 [8]", "result": 3.58, "unit": "µM"}]}, {"smiles": "COc1ccc(-c2nn(-c3ccccc3)cc2/C=C2/S/C(=N\\N=C(/C)c3nc4ccccc4[nH]3)N(c3ccc(Cl)cc3)C2=O)cc1", "values": [{"measurement": "IC50", "setting": "MCF7 [9]", "result": 5.84, "unit": "µM"}, {"measurement": "IC50", "setting": "HepG2 [10]", "result": 11, "unit": "µg/mL"}]}, {"smiles": "COc1cc(/C=N/NC(=O)c2nnn(Cc3nc4ccccc4[nH]3)c2C)ccc1O", "values": [{"measurement": "IC50", "setting": "HCT-116 [11]", "result": 3.34, "unit": "µM"}, {"measurement": "IC50", "setting": "MCF7 [12]", "result": 7.11, "unit": "µM"}, {"measurement": "IC50", "setting": "[13]", "result": 0.229, "unit": "µM"}, {"measurement": "IC50", "setting": "HepG2 [14]", "result": 10.9, "unit": "µM"}]}, {"smiles": "Cc1ccc2oc(SCCC(=O)Nc3nnc(-c4ccccc4)s3)nc2c1", "values": [{"measurement": "IC50", "setting": "MCF7 [3]", "result": 7.36, "unit": "µM"}, {"measurement": "IC50", "setting": "HCT-116 [4]", "result": 5.76, "unit": "µM"}, {"measurement": "IC50", "setting": "HepG2 [5]", "result": 9.45, "unit": "µM"}]}, {"smiles": "Cc1ccc2oc(SCC(=O)Nc3ccc(C(=O)Nc4cccc(Cl)c4)cc3)nc2c1", "values": [{"measurement": "IC50", "setting": "MCF7 [1]", "result": 15.2, "unit": "µM"}, {"measurement": "IC50", "setting": "HepG2 [2]", "result": 10.5, "unit": "µM"}]}, {"smiles": "COc1ccccc1NC(=O)c1ccc(NC(=O)CSc2nc3ccccc3o2)cc1", "values": [{"measurement": "IC50", "setting": "MCF7 [1]", "result": 4, "unit": "µM"}, {"measurement": "IC50", "setting": "HepG2 [2]", "result": 3.95, "unit": "µM"}]}, {"smiles": "Cc1ccc2oc(SCCC(=O)Nc3ccc(S(=O)(=O)NC(=O)Nc4ccccc4)cc3)nc2c1", "values": [{"measurement": "IC50", "setting": "MCF7 [3]", "result": 10.1, "unit": "µM"}, {"measurement": "IC50", "setting": "HCT-116 [4]", "result": 9.1, "unit": "µM"}, {"measurement": "IC50", "setting": "HepG2 [5]", "result": 6.58, "unit": "µM"}]}, {"smiles": "O=C(CCSc1nc2ccccc2o1)Nc1ccc(S(=O)(=O)NC(=O)Nc2ccccc2)cc1", "values": [{"measurement": "IC50", "setting": "MCF7 [3]", "result": 9.95, "unit": "µM"}, {"measurement": "IC50", "setting": "HCT-116 [4]", "result": 9.52, "unit": "µM"}, {"measurement": "IC50", "setting": "HepG2 [5]", "result": 8.75, "unit": "µM"}]}, {"smiles": "Cc1c(C(=O)NNC(=S)Nc2ccc(Cl)cc2)nnn1Cc1nc2ccccc2[nH]1", "values": [{"measurement": "IC50", "setting": "HCT-116 [11]", "result": 8.34, "unit": "µM"}, {"measurement": "IC50", "setting": "MCF7 [12]", "result": 6.81, "unit": "µM"}, {"measurement": "IC50", "setting": "HepG2 [14]", "result": 7.8, "unit": "µM"}]}, {"smiles": "Clc1cccc(Cl)c1CNc1cccc(-c2nc3ccccc3[nH]2)c1", "values": [{"measurement": "IC50", "setting": "[15]", "result": 0.0069, "unit": "µM"}, {"measurement": "IC50", "setting": "MCF7 [9]", "result": 6.3, "unit": "µM"}, {"measurement": "IC50", "setting": "[16]", "result": 0.0067, "unit": "µM"}]}, {"smiles": "O=C(CCc1nnc2sc(-c3ccc(Br)cc3)nn12)c1nc2cc([N+](=O)[O-])ccc2[nH]1", "values": [{"measurement": "IC50", "setting": "HCT-116 [17]", "result": 9.03, "unit": "µM"}, {"measurement": "IC50", "setting": "A549 [18]", "result": 6.17, "unit": "µM"}]}, {"smiles": "O=[N+]([O-])c1ccc(CNc2cccc(-c3nc4ccccc4[nH]3)c2)cc1", "values": [{"measurement": "IC50", "setting": "[15]", "result": 0.0067, "unit": "µM"}, {"measurement": "IC50", "setting": "MCF7 [9]", "result": 3.37, "unit": "µM"}, {"measurement": "IC50", "setting": "[16]", "result": 0.0067, "unit": "µM"}]}, {"smiles": "O=C(CCc1nnc2sc(COc3ccccc3)nn12)c1nc2cc([N+](=O)[O-])ccc2[nH]1", "values": [{"measurement": "IC50", "setting": "UO-31", "result": 32.9, "unit": "µM"}]}, {"smiles": "O=C(CN1C(=O)S/C(=C\\c2ccc(F)cc2)C1=O)Nc1nc2ccc([N+](=O)[O-])cc2s1", "values": [{"measurement": "IC50", "setting": "HepG2 [19]", "result": 7.92, "unit": "µM"}, {"measurement": "IC50", "setting": "MCF7 [20]", "result": 3.84, "unit": "µM"}, {"measurement": "IC50", "setting": "HCT-116 [21]", "result": 5.61, "unit": "µM"}, {"measurement": "IC50", "setting": "[13]", "result": 0.091, "unit": "µM"}]}, {"smiles": "COc1cc(-c2nc3ccccc3s2)ccc1OCC(=O)N/N=C/c1ccc([N+](=O)[O-])cc1", "values": [{"measurement": "IC50", "setting": "MCF7 [22]", "result": 28.4, "unit": "µM"}, {"measurement": "IC50", "setting": "[23]", "result": 0.18, "unit": "µM"}]}, {"smiles": "Clc1ccc(/C=N/N=C(/c2ccccc2)c2ccc3nc(-c4ccc(Cl)cc4)[nH]c3c2)cc1", "values": [{"measurement": "inhibition", "setting": "[7]", "result": 89.9, "unit": "%"}, {"measurement": "IC50", "setting": "NCI-H460", "result": 0.85, "unit": "µM"}, {"measurement": "IC50", "setting": "A549 [8]", "result": 1.88, "unit": "µM"}]}, {"smiles": "O=C(Nc1ccc([N+](=O)[O-])cc1)Nc1cccc(-c2nc3ccccc3[nH]2)c1", "values": [{"measurement": "IC50", "setting": "[15]", "result": 0.0068, "unit": "µM"}, {"measurement": "IC50", "setting": "MCF7 [9]", "result": 7.18, "unit": "µM"}, {"measurement": "IC50", "setting": "[16]", "result": 0.0067, "unit": "µM"}]}]}
